Laboratory results: patent publication US20080139664A1, “ANTI-GLYCATION AGENTS FOR PREVENTING AGE-, DIABETES-, AND SMOKING-RELATED COMPLICATIONS” (NATIONAL RESEARCH COUNCIL OF CANADA, priority 2001, published 2008)
Like-named read-outs stand apart in the source and are kept apart here.

Key:
[1] = system: bovine serum albumin (BSA)
[2] = system: bovine serum albumin (BSA); experiment: Maillard fluorescence-based assay of AGEs formation, IC50 determination (BSA + D-ribose); details: inhibition of Maillard fluorescence development; 0.075 mM BSA, 50 mM D-ribose, 37° C., 5 days
lysozyme = experiment: ESI-MS of lysozyme glycoforms after incubation with D-ribose; details: 37° C., 5 days; for Peak area as % of total area of all glycoforms, 14,569: lysozyme + 2D-ribose − 2H2O (14,569 Da); for Peak area as % of total area of all glycoforms, 14,551: lysozyme + 2D-ribose − 3H2O (14,551 Da); for Peak area as % of total area of all glycoforms, 14,533: lysozyme + 2D-ribose − 5H2O (14,533 Da); for Peak area as % of total area of all glycoforms, 14,515: lysozyme + 2D-ribose − 6H2O (14,515 Da); for Peak area as % of total area of all glycoforms, 14,419: lysozyme + D-ribose − 2H2O (14,419 Da); for Peak area as % of total area of all glycoforms, 14,401: lysozyme + D-ribose − 3H2O (14,401 Da); for Peak area as % of total area of all glycoforms, 14,437: lysozyme + D-ribose − H2O (14,437 Da); for Peak area as % of total area of all glycoforms, 14,496: lysozyme + D-ribose − H2O with one carboxymethylated Lys residue (14,496 Da); for Peak area as % of total area of all glycoforms, 14,364: lysozyme with one carboxymethylated Lys residue (14,364 Da); for Peak area as % of total area of all glycoforms, 14,305: unmodified lysozyme (14,305 Da);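 on all read-outs here: lysozyme incubated with D-ribose, with or without anti-glycation agents, then separated by reversed-phase HPLC and analysed by electrospray mass spectrometry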
Method: The effect of anti-glycation agents on the accumulation of glycated forms (glycoforms) of protein was evaluated by using electrospray mass spectrometry (ESI-MS). As the molecular mass of BSA was too large to monitor the small mass changes of its glycoforms, lysozyme was incubated with D-ribose and anti-glycants. Lysozyme and its glycoforms were isolated by RP-HPLC and analyzed by mass spectrometry.
Samples of lysozyme (0.756 mM; 4.54 mM of Lys residues) and D-ribose (50 mM) were incubated in the presence and absence of the selected anti-glycation agents at 37° C. for 5 days and subjected to electrospray mass spectrometry (ESI-MS) in order to characterize the protein intermediates as well as carboxymethylated lysozyme. Prior to MS measurements, the proteins were isolated by reversed phase-HPLC and were semi-dried by freeze drying.

## COC(=O)C1=C(C)NC(C)=C(C(=O)OCCN(C)Cc2ccccc2)C1c1cccc([N+](=O)[O-])c1 (stereo not shown) [Nicardipine]
[1]
  IC50: > 4000 µM

## O=C1CN(/N=C/c2ccc(-c3ccc([N+](=O)[O-])cc3)o2)C(O)=N1 [Dantrolene]
[2]
  IC50: 100 µM

## O=c1cc(-c2cccc(O)c2)oc2cc(O)c(O)cc12 [6,7,3′-Trihydroxyflavone]
[2]
  IC50: 940 µM

## O=c1cc(-c2ccccc2)oc2cc(O)cc(O)c12 [Chrysin]
[1]
  IC50: 2100 µM

## O=S1(=O)OC(c2ccc(O)cc2)(c2ccc(O)cc2)c2ccccc21 [Phenol red]
[1]
  IC50: 1800 µM

## O=c1c(O)c(-c2cc(O)c(O)c(O)c2)oc2cc(O)cc(O)c12 [Myricetin]
[1]
  IC50: 54 µM
  maximum percentage of the inhibition: 64%)
lysozyme
  Peak area as % of total area of all glycoforms, 14,569: 0.0%
  Peak area as % of total area of all glycoforms, 14,551: 0.0%
  Peak area as % of total area of all glycoforms, 14,533: 0.0%
  Peak area as % of total area of all glycoforms, 14,515: 0.0%
  Peak area as % of total area of all glycoforms, 14,419: 1.8%
  Peak area as % of total area of all glycoforms, 14,401: 0.0%
  Peak area as % of total area of all glycoforms, 14,437: 17.7%
  Peak area as % of total area of all glycoforms, 14,496: 0.0%
  Peak area as % of total area of all glycoforms, 14,364: 1.6%
  Peak area as % of total area of all glycoforms, 14,305: 78.9%

## COC(=O)c1ccc(O)c(N)c1 [Orthoform]
[1]
  IC50: 2100 µM

## CNCC(O)c1ccc(O)cc1 (stereo not shown) [Synephrine]
[1]
  IC50: > 4000 µM

## O=c1cc(-c2ccc(O)cc2)oc2cc(O)cc(O)c12 [Apigenin]
[1]
  IC50: 130 µM

## CC1=C(/C=C/C(C)=C/C=C/C(C)=C/C=C/C=C(C)/C=C/C=C(C)/C=C/C2=C(C)CCCC2(C)C)C(C)(C)CCC1 [beta-Carotene]
[1]
  IC50: 630 µM

## O=[N+]([O-])c1ccc(O)c(Cl)c1 [2-Chloro-4-nitrophenol]
[1]
  IC50: 3500 µM

## CN1C(C(=O)Nc2ccccn2)=C(O)c2ccccc2S1(=O)=O [Piroxicam]
[1]
  IC50: 730 µM

## Cc1c(C(N)=O)cc([N+](=O)[O-])cc1[N+](=O)[O-] [Dinitolmide]
[1]
  IC50: 340 µM
lysozyme
  Peak area as % of total area of all glycoforms, 14,569: 4.9%
  Peak area as % of total area of all glycoforms, 14,551: 3.6%
  Peak area as % of total area of all glycoforms, 14,533: 2.6%
  Peak area as % of total area of all glycoforms, 14,515: 1.3%
  Peak area as % of total area of all glycoforms, 14,419: 7.4%
  Peak area as % of total area of all glycoforms, 14,401: 0.0%
  Peak area as % of total area of all glycoforms, 14,437: 22.6%
  Peak area as % of total area of all glycoforms, 14,496: 0.0%
  Peak area as % of total area of all glycoforms, 14,364: 3.0%
  Peak area as % of total area of all glycoforms, 14,305: 51.7%

## CN(C)c1ccc(O)c2c1C[C@H]1C[C@H]3[C@H](N(C)C)C(O)=C(C(N)=O)C(=O)[C@@]3(O)C(O)=C1C2=O [Minocycline]
[1]
  IC50: 46 µM

## CCS(=O)(=O)CCn1c([N+](=O)[O-])cnc1C [Tinidazole]
[1]
  IC50: 700 µM

## O=[N+]([O-])c1cccc(SSc2cccc([N+](=O)[O-])c2)c1 [Nitrophenide]
[1]
  IC50: 4000 µM

## O=c1cc(CO)occ1O [Kojic acid]
[1]
  IC50: > 4000 µM

## COc1cc(/C=C/C(=O)CC(=O)/C=C/c2ccc(O)c(OC)c2)ccc1O [Curcumin]
[1]
  IC50: 1100 µM

## Oc1c(Br)cc(Br)c2cccnc12 [Broxyquinoline]
[1]
  IC50: 390 µM
lysozyme
  Peak area as % of total area of all glycoforms, 14,569: 5.7%
  Peak area as % of total area of all glycoforms, 14,551: 4.7%
  Peak area as % of total area of all glycoforms, 14,533: 3.2%
  Peak area as % of total area of all glycoforms, 14,515: 1.7%
  Peak area as % of total area of all glycoforms, 14,419: 7.2%
  Peak area as % of total area of all glycoforms, 14,401: 4.9%
  Peak area as % of total area of all glycoforms, 14,437: 21.0%
  Peak area as % of total area of all glycoforms, 14,496: 1.5%
  Peak area as % of total area of all glycoforms, 14,364: 2.5%
  Peak area as % of total area of all glycoforms, 14,305: 42.2%

## Cc1cc(O)c2c(c1)C(=O)c1cc(O)cc(O)c1C2=O [Emodin]
[1]
  IC50: 3000 µM

## Oc1ccc(O)cc1 [Hydroquinone]
[1]
  IC50: 250 µM

## C[C@H]1c2cccc(O)c2C(=O)C2=C(O)[C@]3(O)C(=O)C(C(N)=O)=C(O)[C@@H](N(C)C)[C@@H]3[C@@H](O)[C@@H]21 [Doxycycline]
[1]
  IC50: 33 µM

## Oc1c(Cl)cc(Cl)c2cccnc12 [Chloroxine]
[1]
  IC50: 1400 µM

## Cc1ncc([N+](=O)[O-])n1C [Dimetridazole]
[1]
  IC50: 460 µM

## O=c1c(-c2ccc(O)cc2)coc2cc(O)ccc12 [Daidzein]
[1]
  IC50: > 4000 µM

## Nc1c(Cl)cc([N+](=O)[O-])cc1Cl [Botran]
[1]
  IC50: > 4000 µM

## COc1cc(C2Oc3cc([C@H]4Oc5cc(O)cc(O)c5C(=O)[C@@H]4O)ccc3OC2CO)ccc1O (stereo partly shown) [Silibinin]
[1]
  IC50: 750 µM

## O=C1C[C@@H](c2ccc(O)cc2)Oc2cc(O)cc(O)c21 [Naringenin]
[1]
  IC50: 220 µM
lysozyme
  Peak area as % of total area of all glycoforms, 14,569: 4.9%
  Peak area as % of total area of all glycoforms, 14,551: 3.1%
  Peak area as % of total area of all glycoforms, 14,533: 1.8%
  Peak area as % of total area of all glycoforms, 14,515: 0.0%
  Peak area as % of total area of all glycoforms, 14,419: 7.5%
  Peak area as % of total area of all glycoforms, 14,401: 0.0%
  Peak area as % of total area of all glycoforms, 14,437: 24.4%
  Peak area as % of total area of all glycoforms, 14,496: 0.0%
  Peak area as % of total area of all glycoforms, 14,364: 0.1%
  Peak area as % of total area of all glycoforms, 14,305: 56.8%

## COc1ccc2c(c1)c(CC(=O)O)c(C)n2C(=O)c1ccc(Cl)cc1 [Indomethacin]
lysozyme
  Peak area as % of total area of all glycoforms, 14,569: 3.5%
  Peak area as % of total area of all glycoforms, 14,551: 3.3%
  Peak area as % of total area of all glycoforms, 14,533: 1.6%
  Peak area as % of total area of all glycoforms, 14,515: 0.0%
  Peak area as % of total area of all glycoforms, 14,419: 7.5%
  Peak area as % of total area of all glycoforms, 14,401: 0.5%
  Peak area as % of total area of all glycoforms, 14,437: 18.6%
  Peak area as % of total area of all glycoforms, 14,496: 0.0%
  Peak area as % of total area of all glycoforms, 14,364: 5.1%
  Peak area as % of total area of all glycoforms, 14,305: 58.0%

## CC(NCCc1ccc(O)cc1)C(O)c1ccc(O)cc1 (stereo not shown) [Ritodrine]
[1]
  IC50: > 4000 µM

## COCCOC(=O)C1=C(C)NC(C)=C(C(=O)OC(C)C)C1c1cccc([N+](=O)[O-])c1 (stereo not shown) [Nimodipine]
[1]
  IC50: > 4000 µM

## CC(C)C(=O)Nc1ccc([N+](=O)[O-])c(C(F)(F)F)c1 [Flutamide]
[1]
  IC50: 1300 µM

## CO[C@H]1/C=C/O[C@@]2(C)Oc3c(C)c(O)c4c(O)c(c(/C=N/N5CCN(C)CC5)c(O)c4c3C2=O)NC(=O)/C(C)=C\C=C\[C@H](C)[C@H](O)[C@@H](C)[C@@H](O)[C@@H](C)[C@H](OC(C)=O)[C@@H]1C [Rifampicin]
[1]
  IC50: 120 µM

## O=C1CN(/N=C/c2ccc([N+](=O)[O-])o2)C(=O)N1 [Nitrofurantoin]
[1]
  IC50: 44 µM
  maximum percentage of the inhibition: 40%)

## Cn1cnc([N+](=O)[O-])c1Sc1ncnc2nc[nH]c12 [Azathioprine]
[1]
  IC50: 400 µM

## O=C(N[C@H](CO)[C@H](O)c1ccc([N+](=O)[O-])cc1)C(Cl)Cl [Chloramphenicol]
[1]
  IC50: 1300 µM

## O=C(Cn1ccnc1[N+](=O)[O-])NCCO [Etanidazole]
[1]
  IC50: 450 µM

## CC(C(O)c1ccc(O)cc1)N1CCC(Cc2ccccc2)CC1 (stereo not shown) [Ifenprodil]
[1]
  IC50: > 4000 µM

## CC(C)(C)NCC(O)c1cc(O)cc(O)c1 (stereo not shown) [Terbutaline]
[1]
  IC50: > 4000 µM

## CC(C)=CCC1=C(O)C(=O)c2ccccc2C1=O [Lapachol]
[1]
  IC50: 320 µM

## O=C(O)c1cc(/N=N/c2ccc(S(=O)(=O)Nc3ccccn3)cc2)ccc1O [Sulfasalazine]
lysozyme
  Peak area as % of total area of all glycoforms, 14,569: 4.7%
  Peak area as % of total area of all glycoforms, 14,551: 4.7%
  Peak area as % of total area of all glycoforms, 14,533: 2.1%
  Peak area as % of total area of all glycoforms, 14,515: 1.3%
  Peak area as % of total area of all glycoforms, 14,419: 8.2%
  Peak area as % of total area of all glycoforms, 14,401: 2.7%
  Peak area as % of total area of all glycoforms, 14,437: 20.6%
  Peak area as % of total area of all glycoforms, 14,496: 1.5%
  Peak area as % of total area of all glycoforms, 14,364: 2.9%
  Peak area as % of total area of all glycoforms, 14,305: 47.2%

## O=c1cc(-c2ccc(O)c(O)c2)oc2cccc(O)c12 [5,3′,4′-Trihydroxyflavone]
[1]
  IC50: 1600 µM

## COc1cccc2c1cc([N+](=O)[O-])c1c(C(=O)O)cc3c(c12)OCO3 [Aristolochic acid]
[1]
  IC50: > 4000 µM

## CNC(=C[N+](=O)[O-])NCCSCc1ccc(CN(C)C)o1 [Ranitidine]
[1]
  IC50: 1100 µM

## NC(=O)NO [Hydroxyurea]
[1]
  IC50: > 4000 µM

## Cc1ncc([N+](=O)[O-])n1CCO [Metronidazole]
[1]
  IC50: 660 µM
